Results: US7772367B2, “C-terminal p53 palindromic peptide that induces apoptosis of cells with aberrant p53 and uses thereof” (The Trustees of Columbia University in the City of New York, priority 2004, dated 2010)
Entries after “also recorded” stand apart in the source; their conditions may differ. Where a SMILES comes first, the peptide text is derived from it. The star is where a group is joined. Cbz = O=C(OCc1ccccc1)*; CH2F = FC*

Columns and labels:
[1] = system: engineered MDA-MB-468 human breast cancer cells; assay: TUNEL assay with flow cytometry on engineered cells; type: cell-based; settings: 2 μM inhibitor added 6 hours after doxycycline, 24 hr total
Procedure: TUNEL assay on engineered MDA-MB-468 human breast cancer cells after 24 hours of exposure to 2 μg/ml Doxycycline.
(§1) Furthermore, using a specific inhibitor for caspase 8 eliminated the death induced by the C-terminal p53 palindromic tetrapeptide expression. The cleavage of the DNA repair signal protein poly-adenosyl-ribose polymerase (PARP), a key indicator of apoptosis, was also observed with the C-terminal p53 palindromic tetramer expression (FIGS. 5 and 6). Finally, one of the later events to occur as cells are undergoing apoptosis is the endonuclease cleavage of chromatin DNA at the DNA linker site between nucleosomes. These DNA fragments can be end-labeled with fluorescent-dUTP with the use of terminal deoxynucleotidyl transferase. This technique, called TUNEL, is extremely sensitive for the detection of apoptosis. We used a commercial TUNEL assay (Medical & Biological Labs, Nagoya, Japan) with flow cytometry to examine these engineered cells. By this assay, 80% of the cells were killed with induction of the 4 repeat by doxycycline treatment (FIG. 7). Furthermore, by using a specific inhibitor for caspase 8, IETD-FMK ([…], Nagoya, Japan), death induced by the C-terminal p53 palindromic peptide expression (FIG. 7) was eliminated. All of these findings support an apoptotic mechanism of cell death by this peptide.

[2] = system: p53 responsive proteins (Bax, Fas, caspase 8) and PARP in engineered MDA-MB-468 cells; assay: Immunoblot of p53 responsive proteins and PARP cleavage after doxycycline induction; type: cell-based, human; settings: for Bax expression: doxycycline 2 μg/ml, 12, 36 and 48 hours; for PARP cleavage product: after 4-repeat induction with doxycycline
Procedure: Changes in the protein expression levels for the pro-apoptotic protein Bax, an active p53 responsive gene, induced by exposure to the tetracycline analog doxycycline (2 μg/ml) for 12, 36 and 48 hours. Engineered MDA-MB-468 cells were collected after the indicated exposure times and the total protein was extracted, an aliquot was run on a 12% acrylamide/SDS PAGE gel, and blotted onto nitrocellulose membranes. Antibodies specific for Bax, the 4-repeat (p53) and PARP were used to determine expression levels and α-tubulin was used as a loading control.
Changes in the protein expression levels for the p53 responsive genes encoding Fas and caspase 8, 24 hours after the engineered MDA-MB-468 cells were exposed to the indicated concentrations of doxycycline. A PARP cleavage product is also shown. α-tubulin was used as a loading control.
For the tetracycline-inducible peptide systems in MDA-MB-468 cells, cells were exposed to various concentrations of doxycycline for 24-48 hours and cell death measured by trypan blue exclusion (only dying cells are permeable to this dye) and propidium iodide staining (as above, in cells undergoing apoptosis DNA is cleaved so less PI can be bound resulting in accumulation of a sub-G1 peak of cells on flow cytometry). […] This implies a unique difference between the monomer and the 4 repeat.
as §1

[3] = system: MDA-MB-468 human breast cancer cells; assay: Propidium iodide staining / flow cytometry (sub-G1) of cells exposed to purified peptide; type: cell-based; settings: 30 uM peptide, 6 hours
Procedure: Effects of the C-Terminal p53 Palindromic Tetrapeptide on Cells in Culture. MDA-MB-468 human breast cancer cells were grown in culture and exposed for 6 hours with no peptide (control) or with 30 μM of either the single p53 C-terminal peptide fused to the Ant carrier (p53-Ant) or with the His tagged p53 palindromic tetrapeptide fused to the Ant carrier (4 Repeat). The DNA within the cells was then stained with propidium iodide and cell particles were assayed by flow cytometry. The percent within each graph represents the percent cell particles with less than a diploid amount of DNA, indicative of apoptotic cells (sub G1 population).
In order to test the effect of the C-terminal p53 palindromic peptide cloned in E. Coli on cells in culture, the purified peptide was incubated at 30 μM with the human breast cancer cell line MDA-MB-468, and the effects compared to original monomer or single C-terminal peptide. Prior experiments had shown that exposure at this concentration was less than the IC50 for the original peptide. […] The DNA content was then quantified by flow cytometry in a FACSCalibur Cell Sorter (BD Bioscience, San Diego, Calif.). Cell cycle profiles were obtained, and the percentage of cells containing less than the diploid amount of DNA, indicative of cell undergoing cell death by apoptosis (sub-G1 peak), was quantified (FIG. 3).

[4] = system: normal cells including the pluripotent stem cells for granulocytes, erythrocytes, monocytes and macrophages; assay: Effect on normal cells; type: cell-based
[5] = system: MDA-MB-468 tumors; assay: Inducible expression in MDA-MB-468 tumors in athymic nude mice; type: in vivo; settings: doxycycline 0.5 mg/ml in drinking water; described in present tense
Procedure: Four groups of ten animals each are used. Groups 1 and 2 are injected with one million MDA-MB-468 cells containing the inducibly expressible palindromic tetramer in 0.5 ml of basement membrane media. Groups 3 and 4 are injected with one million MDA-MB-468 cells containing the inducibly expressible GFP. The tumors are allowed to develop to a measurable state (approximately 2-3 weeks). Then groups 1 and 3 are given 0.5 mg/ml doxycycline in their drinking water, and groups 2 and 4 are given drinking water without doxycycline. Tumor sizes are measured daily. Animals are then euthanized and the tumors removed for analysis. Tumor sections are assayed for levels of apoptosis by DNA cleavage assay (TUNEL) and activation of caspases and cleavage of PARP.

[6] = system: MDA-MB-468 cells; assay: Trypan blue exclusion in tetracycline-inducible peptide-expressing cells; type: cell-based, human; settings: doxycycline induction 24-48 hours
Description: The MDA-MB-468 breast cancer cell line which expresses high levels of mutant p53 (Arg to His substitution at amino acid 273, one of the two most common p53 mutations in human cancers) was chosen as the model system. The tetracycline-inducible RevTet-On System (Clontech Laboratories, Palo Alto, Calif.) was used for these studies. Stably expressed reverse tetracycline-controlled transactivator (rtTA), under the control of a CMV promoter, was first established in the MDA-MB-468 cell line. Initially immunoblots with an antibody against the transactivator were used to identify high expression; subsequently a luciferase reporter system was used to identify highly inducible clones. This assay incorporated a luciferase reporter (Promega, Madison, Wis.) with the inducible pREvTRE vector of the RevTet-On system to measure the ability of tetracycline to induce luciferase activity. […]
(§2) For the tetracycline-inducible peptide systems in MDA-MB-468 cells, cells were exposed to various concentrations of doxycycline for 24-48 hours and cell death measured by trypan blue exclusion (only dying cells are permeable to this dye) and propidium iodide staining (as above, in cells undergoing apoptosis DNA is cleaved so less PI can be bound resulting in accumulation of a sub-G1 peak of cells on flow cytometry). […]

[7] = system: MDA-MB-468 cells; assay: Propidium iodide staining / flow cytometry (sub-G1) in tetracycline-inducible peptide-expressing cells; type: cell-based, human
Procedure: Effects of endogenous, regulated expression of the 4 repeat peptide on cell viability. MDA-MB-468 cells engineered to express the palindromic p53 4 repeat peptide under the control of a tetracycline responsive promoter were cultured without or with the addition of 2 μg/ml doxycycline, an analog of tetracycline, for 24, 48 or 72 hours. Cells were collected, fixed in ice cold 70% ethanol and the DNA was stained with propidium iodide. Cell cycle profiles were obtained by flow cytometry and the percent of sub-G1 cell particles, indicative of apoptosis, was quantified.
The MDA-MB-468 breast cancer cell line which expresses high levels of mutant p53 (Arg to His substitution at amino acid 273, one of the two most common p53 mutations in human cancers) was chosen as the model system. The tetracycline-inducible RevTet-On System (Clontech Laboratories, Palo Alto, Calif.) was used for these studies. […]
as §2

[8] = system: 9L rat glioma; assay: Survival of rats with intracerebral 9L glioma infused with adenovirus; type: in vivo, male fischer rats; settings: concluding statement of rat glioma study
Procedure: Survival analysis of male rats initially injected with 5 μl of 10^5 9L cells over […] (Tumor implantation) through a catheter stereotactically inserted into the right caudate nucleus. These rats were subsequently infused with 7-8 μl volumes per day over 3 hours a day for a total of 7 days in three groups as follows: 2 rats received phosphate buffered saline (PBS control) solution, 3 rats received Ad/vector control virus (Empty Virus Control), and 10 rats received Ad/4-rep-p53p adenovirus containing the tetrapeptide C-terminal p53 peptide.) The average survival time for the groups were: 20 days for the PBS control group, 27 days for the adenovirus vector control group (23.25 days for the combined control groups) and 37.25 days for the Ad/4-rep-p53p Adenovirus treated group. Thus, the treatment group infected with the adenovirus containing the C-terminal palindromic tetrapeptide experienced an 86% increase in survival compared to the PBS controls and a 60% increase in survival compared to the combined controls. […]
For animal studies, 15 male fischer rats (age 12-14 weeks, 250 g) were anesthetized, and a 20 gauge plastic guide cannula was cemented into their skulls. […] The rats were monitored for an additional 44 days to determine differences in survival among groups.

| Molecule | effect of caspase 8 inhibitor on death/TUNEL shift induced by palindromic peptide expression [1] | Bax expression [2] | cell death (PI staining, sub-G1 population) [3] [%] | effect on normal cells [4] | apoptosis of cancer cells in animals [5] | decrease in viability (trypan blue exclusion) [6] | cell death (sub-G1 peak, propidium iodide staining) ([7]; after doxycycline induction, stably expressing cell lines) [%] | apoptosis (propidium iodide staining and flow cytometry) ([7]; doxycycline induction, FIG. 4) | Fas expression ([2]; 24 hours doxycycline) | caspase 8 expression ([2]; 24 hours doxycycline) | PARP cleavage product [2] | PARP cleavage product ([2]; listed as C-terminal p53 palindromic tetramer) | apoptosis of cancer cells in animals [8] |
| --- | --- | --- | --- | --- | --- | --- | --- | --- | --- | --- | --- | --- | --- |
| CC[C@H](C)[C@H](NC(=O)OCc1ccccc1)C(=O)N[C@@H](CCC(=O)OC)C(=O)N[C@H](C(=O)N[C@@H](CC(=O)OC)C(=O)CF)[C@@H](C)O [IETD-FMK] (Cbz-IE(OMe)TD(OMe)-CH2F) | no shift occurs; also recorded: eliminated |  |  |  |  |  |  |  |  |  |  |  |  |
| CSCC[C@H](NC(=O)[C@H](CCCCN)NC(=O)[C@H](Cc1c[nH]c2ccccc12)NC(=O)[C@H](CCCCN)NC(=O)[C@H](CCCCN)NC(=O)[C@H](CCCCN)NC(=O)[C@H](CCCCN)NC(=O)[C@H](Cc1c[nH]cn1)NC(=O)[C@H](CCCNC(=N)N)NC(=O)[C@H](CO)NC(=O)[C@@H](NC(=O)[C@H](CO)NC(=O)[C@H](CCC(N)=O)NC(=O)CNC(=O)[C@H](CCCCN)NC(=O)[C@H](CCCCN)NC(=O)[C@H](CO)NC(=O)[C@H](CCCCN)NC(=O)[C@H](CC(C)C)NC(=O)[C@H](Cc1c[nH]cn1)NC(=O)[C@H](CO)NC(=O)[C@H](CO)NC(=O)[C@H](Cc1c[nH]cn1)NC(=O)[C@H](C)NC(=O)[C@H](CCCNC(=N)N)NC(=O)[C@H](CO)NC(=O)CN)[C@@H](C)O)C(=O)N[C@@H](CCCNC(=N)N)C(=O)N[C@@H](CCCNC(=N)N)C(=O)N[C@@H](CC(N)=O)C(=O)N[C@@H](CCC(N)=O)C(=O)N[C@@H](Cc1ccccc1)C(=O)N[C@@H](Cc1c[nH]c2ccccc12)C(=O)N[C@H](C(=O)N[C@@H](CCCCN)C(=O)N[C@H](C(=O)N[C@@H](CCC(N)=O)C(=O)N[C@@H](CCCNC(=N)N)C(=O)NCC(=O)O)C(C)C)C(C)C [p53 C-terminal peptide (single repeat), reference compound] (H-GSRAHSSHLKSKKGQSTSRHKKKKWKMRRNQFWVKVQRG-OH; N-terminus and C-terminus assumed) |  | did not | 23 |  |  |  |  |  |  |  |  |  |  |
| p53 palindromic tetramer: C-terminal p53 palindromic tetrapeptide (four aa 353-393 segments, glycine-linked) expressed in cells from inducible or viral construct |  | increase in the expression |  | no to minimal effect | found to induce apoptosis | greater than 80% | 43 | greater than 40% | increase in the expression | increase in the expression | observed even 12 hours after | observed | found to induce apoptosis |
